Experimental data as given in patent US20260317324A1, “BIFUNCTIONAL COMPOUNDS FOR DEGRADING BRAF VIA UBIQUITIN PROTEOSOME PATHWAY” (Nurix Therapeutics, Inc., priority 2023, published 2026).

Key:
Format in all cases: cell-based
[1] = target: T1, BRAF V600E (Homo sapiens, UniProt P15056, V600E); assay: BRAF HiBiT degradation assay, C-terminal HiBiT-tagged BRAF V600E A375 cells (clone 1F10), Nano-Glo HiBiT Lytic assay; conditions: for Dmax: A-375
T1 construct: endogenous C-terminal HiBiT fusion tag on BRAF V600E allele; endogenous in cells; host or cells: A375 clone 1F10 (CRISPR-Cas9 knock-in of the HiBiT tag; parental A375 from ATCC)
Method in brief: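 Luminescence from the Nano-Glo HiBiT lytic read-out gave % BRAF V600E remaining versus DMSO-treated tagged cells, with untagged A375 as background. Clone 1F10 cells (10,000/well, 24 h pre-culture) received compound at 1 μM–0.01 nM in half-log steps, 0.2% DMSO; curve fits gave DC50 at Y=50, plus observed Dmax.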

[2] = target: T2, BRAF G466V (Homo sapiens, UniProt P15056, G466V); assay: BRAF HiBiT degradation assay, C-terminal HiBiT-tagged BRAF G466V overexpressed in HCT-116 BRAF−/− cells (clone 8), Nano-Glo HiBiT Lytic assay
T2 construct: Horizon Discovery (HCT-116 BRAF−/− cells); host or cells: HCT-116 BRAF−/− cells, clone 8, lentiviral transduction
Method in brief: (§1)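 Degradation was read by Nano-Glo HiBiT lytic luminescence, normalised to DMSO-treated tagged cells with wildtype HCT-116 as background. Test cells were lentiviral clones of HCT-116 BRAF−/− carrying HiBiT-tagged mutants in RPMI/10% FBS, given compound at 0.01 nM–1 μM in duplicate. Outputs are the curve-fitted concentration giving 50% degradation and the maximal observed degradation.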

[3] = target: T3, BRAF G469A (Homo sapiens, UniProt P15056, G469A); assay: BRAF HiBiT degradation assay, C-terminal HiBiT-tagged BRAF G469A overexpressed in HCT-116 BRAF−/− cells (clone 34), Nano-Glo HiBiT Lytic assay
T3 construct: Horizon Discovery (HCT-116 BRAF−/− cells); host or cells: HCT-116 BRAF−/− cells, clone 34, lentiviral transduction
Method in brief: as §1

[4] = target: T4, BRAF D594G (Homo sapiens, UniProt P15056, D594G); assay: BRAF HiBiT degradation assay, C-terminal HiBiT-tagged BRAF D594G overexpressed in HCT-116 BRAF−/− cells (clone 63), Nano-Glo HiBiT Lytic assay
T4 construct: Horizon Discovery (HCT-116 BRAF−/− cells); host or cells: HCT-116 BRAF−/− cells, clone 63, lentiviral transduction
Method in brief: as §1

[5] = A375 (BRAF V600E, Class 1), DC50 at 50% degradation
[6] = A375 (BRAF V600E, Class 1), observed Dmax, % protein degraded relative to DMSO control
[7] = BRAF G466V (Class 3), HCT-116 BRAF−/− cells, DC50 at 50% degradation
[8] = BRAF G466V (Class 3), HCT-116 BRAF−/− cells, observed Dmax relative to DMSO control
[9] = BRAF G469A (Class 2), HCT-116 BRAF−/− cells, DC50 at 50% degradation
[10] = BRAF G469A (Class 2), HCT-116 BRAF−/− cells, observed Dmax relative to DMSO control
[11] = BRAF D594G (Class 3), HCT-116 BRAF−/− cells, DC50 at 50% degradation
[12] = BRAF D594G (Class 3), HCT-116 BRAF−/− cells, observed Dmax relative to DMSO control
[13] = A375 (BRAF V600E), DC50 at 50%: fitted conc. at Y=50
[14] = A375 (BRAF V600E), percentage protein degraded at maximal compound effect relative to DMSO
[15] = BRAF G466V, DC50 at 50%: fitted conc. at Y=50
[16] = HCT-116, BRAF G466V, percentage protein degraded at maximal compound effect relative to DMSO
[17] = Class 2, BRAF G469A, DC50 at 50%: fitted conc. at Y=50
[18] = HCT-116, Class 2, BRAF G469A, percentage protein degraded at maximal compound effect relative to DMSO
[19] = BRAF D594G, DC50 at 50%: fitted conc. at Y=50
[20] = HCT-116, BRAF D594G, percentage protein degraded at maximal compound effect relative to DMSO

T2 sequence (P15056 whole entry G466V): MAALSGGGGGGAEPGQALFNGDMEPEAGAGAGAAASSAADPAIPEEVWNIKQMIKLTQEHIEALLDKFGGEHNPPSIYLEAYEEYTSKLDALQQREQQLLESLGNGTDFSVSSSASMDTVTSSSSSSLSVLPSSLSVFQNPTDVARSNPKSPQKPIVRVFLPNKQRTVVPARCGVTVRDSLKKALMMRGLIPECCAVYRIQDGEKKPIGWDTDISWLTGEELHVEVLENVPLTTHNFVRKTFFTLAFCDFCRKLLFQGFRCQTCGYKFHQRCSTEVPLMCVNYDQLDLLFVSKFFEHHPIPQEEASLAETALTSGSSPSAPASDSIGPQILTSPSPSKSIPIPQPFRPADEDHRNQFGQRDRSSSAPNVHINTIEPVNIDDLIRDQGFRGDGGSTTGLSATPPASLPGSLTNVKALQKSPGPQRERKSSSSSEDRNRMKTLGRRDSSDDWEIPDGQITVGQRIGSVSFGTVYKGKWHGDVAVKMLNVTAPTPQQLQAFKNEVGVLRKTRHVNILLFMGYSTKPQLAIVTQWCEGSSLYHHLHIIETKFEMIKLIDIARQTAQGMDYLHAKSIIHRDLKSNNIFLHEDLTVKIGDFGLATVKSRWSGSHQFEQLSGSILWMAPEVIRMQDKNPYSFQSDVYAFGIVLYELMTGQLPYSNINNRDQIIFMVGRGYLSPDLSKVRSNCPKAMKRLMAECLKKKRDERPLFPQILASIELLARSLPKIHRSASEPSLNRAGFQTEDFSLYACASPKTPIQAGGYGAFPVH
T3 sequence (P15056 whole entry G469A): as the sequence (P15056 whole entry G466V) above, with V466G, G469A counted along it
T1 sequence (P15056 whole entry V600E, the tested form may be a part): as the sequence (P15056 whole entry G466V) above, with V466G, V600E counted along it
T4 sequence (P15056 whole entry D594G): as the sequence (P15056 whole entry G466V) above, with V466G, D594G counted along it

## C[C@@H]1CN(c2ccc(-n3cc(-c4cc(Cl)cc(NS(=O)(=O)N5CC[C@@H](F)C5)c4F)c(-c4ccncc4)n3)cc2)CCN1CC1CCN(c2ccc(C3CCC(=O)NC3=O)cn2)CC1 (mixture of isomers) [Compound 318, (3R)—N-[5-chloro-3-(1-{4-[(3R)-4-[(1-{5-[(3RS)-2,6-dioxopiperidin-3-yl]pyridin-2-yl}piperidin-4-yl)methyl]-3-methylpiperazin-1-yl]phenyl}-3-(pyridin-4-yl)-1H-pyrazol-4-yl)-2-fluorophenyl]-3-fluoropyrrolidine-1-sulfonamide]
[1]; [5]
  DC50: < 10 nM
[1]; [6]
  Dmax: > 70%
[2]; [7]
  DC50: < 10 nM
[2]; [8]
  Dmax: > 70%
[3]; [9]
  DC50: < 10 nM
[3]; [10]
  Dmax: > 70%
[4]; [11]
  DC50: < 10 nM
[4]; [12]
  Dmax: > 70%

## CCCS(=O)(=O)Nc1cccc(-c2nc(C3CCC4(CC3)CCN(C(=O)C3CCN(c5cccc6c5n(C)c(=O)n6C5CCC(=O)NC5=O)CC3)CC4)sc2-c2ccnc(N)n2)c1F (racemic) [Compound 251, Rac-N-{3-[5-(2-aminopyrimidin-4-yl)-2-[3-(1-{1-[(3R)-2,6-dioxopiperidin-3-yl]-3-methyl-2-oxo-2,3-dihydro-1H-1,3-benzodiazol-4-yl}piperidine-4-carbonyl)-3-azaspiro[5.5]undecan-9-yl]-1,3-thiazol-4-yl]-2-fluorophenyl}propane-1-sulfonamide]
[1]; [5]
  DC50: < 10 nM
[1]; [6]
  Dmax: > 70%
[2]; [7]
  DC50: < 10 nM
[2]; [8]
  Dmax: 30 to 70%
[3]; [9]
  DC50: > 500 nM
[3]; [10]
  Dmax: 30 to 70%
[4]; [11]
  DC50: < 10 nM
[4]; [12]
  Dmax: 30 to 70%

## CCCS(=O)(=O)Nc1cccc(-c2nc(C3CCN(C(=O)C4CCN(C(=O)C5CCN(c6ccc(C7CCC(=O)NC7=O)cn6)CC5)CC4)CC3)sc2-c2ccnc(NC(C)C)n2)c1F (racemic) [Compound 206, Rac-N-[3-(2-{1-[1-(1-{5-[(3R)-2,6-dioxopiperidin-3-yl]pyridin-2-yl}piperidine-4-carbonyl)piperidine-4-carbonyl]piperidin-4-yl}-5-{2-[(propan-2-yl)amino]pyrimidin-4-yl}-1,3-thiazol-4-yl)-2-fluorophenyl]propane-1-sulfonamide]
[1]; [13]
  DC50: < 10 nM
[1]; [14]
  Dmax: > 70%
[2]; [15]
  DC50: 10 to 50 nM
[2]; [16]
  Dmax: 30 to 70%
[3]; [17]
  DC50: > 500 nM
[3]; [18]
  Dmax: 30 to 70%
[4]; [19]
  DC50: < 10 nM
[4]; [20]
  Dmax: 30 to 70%

## CCCS(=O)(=O)Nc1cccc(-c2nc(C(C)(C)C)sc2-c2ccnc(Nc3cccc(OC4CCN(C(=O)CN5CCC(c6ccc(NC7CCC(=O)NC7=O)cc6)CC5)CC4)c3)n2)c1F (racemic) [Compound 96, Rac-N-(3-{2-tert-butyl-5-[2-({3-[(1-{2-[4-(4-{[(3R)-2,6-dioxopiperidin-3-yl]amino}phenyl)piperidin-1-yl]acetyl}piperidin-4-yl)oxy]phenyl}amino)pyrimidin-4-yl]-1,3-thiazol-4-yl}-2-fluorophenyl)propane-1-sulfonamide]
[1]; [13]
  DC50: 10 to 50 nM
[1]; [14]
  Dmax: > 70%
[2]; [15]
  DC50: > 500 nM
[2]; [16]
  Dmax: 30 to 70%
[3]; [17]
  DC50: > 500 nM
[3]; [18]
  Dmax: 30 to 70%
[4]; [19]
  DC50: > 500 nM
[4]; [20]
  Dmax: 30 to 70%

## CCCS(=O)(=O)Nc1cccc(-c2cn(-c3ccc(N4CCN(CC5CCN(c6ccc([C@H]7CCC(=O)NC7=O)cc6)CC5)[C@H](C)C4)cc3)nc2-c2ccncc2)c1F [Compound 378, N-[3-(1-{4-[(3R)-4-[(1-{4-[(3R)-2,6-dioxopiperidin-3-yl]phenyl}piperidin-4-yl)methyl]-3-methylpiperazin-1-yl]phenyl}-3-(pyridin-4-yl)-1H-pyrazol-4-yl)-2-fluorophenyl]propane-1-sulfonamide]
[1]; [5]
  DC50: 10 to 50 nM
[1]; [6]
  Dmax: > 70%
[2]; [7]
  DC50: 10 to 50 nM
[2]; [8]
  Dmax: 30 to 70%
[3]; [9]
  DC50: > 500 nM
[3]; [10]
  Dmax: 30 to 70%
[4]; [11]
  DC50: > 500 nM
[4]; [12]
  Dmax: 30 to 70%

## CCCS(=O)(=O)Nc1cccc(-c2nc(C(C)(C)C)sc2-c2ccnc(Nc3cccc(OC4CCN(CC5(C)CCN(c6ccc(C7CCC(=O)NC7=O)cn6)CC5)CC4)c3)n2)c1F (racemic) [Compound 68, Rac-N-{3-[2-tert-butyl-5-(2-{[3-({1-[(1-{5-[(3R)-2,6-dioxopiperidin-3-yl]pyridin-2-yl}-4-methylpiperidin-4-yl)methyl]piperidin-4-yl}oxy)phenyl]amino}pyrimidin-4-yl)-1,3-thiazol-4-yl]-2-fluorophenyl}propane-1-sulfonamide]
[1]; [13]
  DC50: 10 to 50 nM
[1]; [14]
  Dmax: > 70%
[2]; [15]
  DC50: 50 to 500 nM
[2]; [16]
  Dmax: 30 to 70%
[3]; [17]
  DC50: 50 to 500 nM
[3]; [18]
  Dmax: 30 to 70%
[4]; [19]
  DC50: > 500 nM
[4]; [20]
  Dmax: 30 to 70%

## CCCS(=O)(=O)Nc1cccc(-c2nc(C(C)(C)C)sc2-c2ccnc(Nc3cnn(C4CCN(CC[C@H]5CCN(c6ccc(C7CCC(=O)NC7=O)cn6)C5)CC4)c3)n2)c1F (mixture of isomers) [Compound 77, N-{3-[2-tert-butyl-5-(2-{[1-(1-{2-[(3S)-1-{5-[(3RS)-2,6-dioxopiperidin-3-yl]pyridin-2-yl}pyrrolidin-3-yl]ethyl}piperidin-4-yl)-1H-pyrazol-4-yl]amino}pyrimidin-4-yl)-1,3-thiazol-4-yl]-2-fluorophenyl}propane-1-sulfonamide]
[1]; [13]
  DC50: 10 to 50 nM
[1]; [14]
  Dmax: 30 to 70%
[2]; [15]
  DC50: > 500 nM
[2]; [16]
  Dmax: < 30%
[3]; [17]
  DC50: > 500 nM
[3]; [18]
  Dmax: < 30%
[4]; [19]
  DC50: > 500 nM
[4]; [20]
  Dmax: 30 to 70%

## O=C1CC[C@H](c2ccc(N3CCC(CN4CCN(c5ccc(-n6cc(-c7cc(F)cc(NS(=O)(=O)N8CC[C@@H](F)C8)c7F)c(-c7ccncc7)n6)nc5)CC4)CC3)cc2)C(=O)N1 [Compound 302, (3R)—N-{3-[1-(5-{4-[(1-{4-[(3R)-2,6-dioxopiperidin-3-yl]phenyl}piperidin-4-yl)methyl]piperazin-1-yl}pyridin-2-yl)-3-(pyridin-4-yl)-1H-pyrazol-4-yl]-2,5-difluorophenyl}-3-fluoropyrrolidine-1-sulfonamide]
[1]; [5]
  DC50: < 10 nM
[1]; [6]
  Dmax: > 70%
[2]; [7]
  DC50: < 10 nM
[2]; [8]
  Dmax: > 70%
[3]; [9]
  DC50: 10 to 50 nM
[3]; [10]
  Dmax: 30 to 70%
[4]; [11]
  DC50: < 10 nM
[4]; [12]
  Dmax: > 70%

## CCCS(=O)(=O)Nc1cccc(-c2nc(C(C)(C)C)sc2-c2ccnc(Nc3ccc(C4CCN(CC5CCN(c6ccc([C@H]7CCC(=O)NC7=O)cc6)CC5)CC4)cc3)n2)c1F [Compound 89, N-[3-(2-tert-butyl-5-{2-[(4-{1-[(1-{4-[(3R)-2,6-dioxopiperidin-3-yl]phenyl}piperidin-4-yl)methyl]piperidin-4-yl}phenyl)amino]pyrimidin-4-yl}-1,3-thiazol-4-yl)-2-fluorophenyl]propane-1-sulfonamide]
[1]; [13]
  DC50: 10 to 50 nM
[1]; [14]
  Dmax: > 70%
[2]; [15]
  DC50: > 500 nM
[2]; [16]
  Dmax: 30 to 70%
[3]; [17]
  DC50: > 500 nM
[3]; [18]
  Dmax: 30 to 70%
[4]; [19]
  DC50: > 500 nM
[4]; [20]
  Dmax: 30 to 70%

## O=C1CC[C@H](c2ccc(N3CCC(CN4CCN(c5ccc(-n6cc(-c7cc(Cl)cc(NS(=O)(=O)N8CCCC8)c7F)c(-c7ccncc7)n6)cn5)CC4)CC3)cc2)C(=O)N1 [Compound 351, N-{5-chloro-3-[1-(6-{4-[(1-{4-[(3R)-2,6-dioxopiperidin-3-yl]phenyl}piperidin-4-yl)methyl]piperazin-1-yl}pyridin-3-yl)-3-(pyridin-4-yl)-1H-pyrazol-4-yl]-2-fluorophenyl}pyrrolidine-1-sulfonamide]
[1]; [5]
  DC50: < 10 nM
[1]; [6]
  Dmax: > 70%
[2]; [7]
  DC50: < 10 nM
[2]; [8]
  Dmax: > 70%
[3]; [9]
  DC50: 10 to 50 nM
[3]; [10]
  Dmax: 30 to 70%
[4]; [11]
  DC50: < 10 nM
[4]; [12]
  Dmax: 30 to 70%
